Results published in PubChem BioAssay AID588576 (Sanford-Burnham Center for Chemical Genomics, 2011).
Active and inactive are the calls of the source.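 Rule for the calls: active = an EC50 below a set limit for the caspase 9 and 3 cleavage signal; inactive = the rest.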

Target: Caspase-3 (Homo sapiens) + Caspase-9 (Homo sapiens) (UniProt P42574+P55211)
Test: activation of LZ-caspase-9 coupled caspase-3 activity – biochemical, fluorescence, LZ-caspase-9 mutant, selectivity assay for Apaf-1 activator project, SAR follow-up (AID 588576)
Settings: recombinant LZ-caspase-9/procaspase-3, DEVD-Rh110 fluorescence, 55 min

Chain of Caspase-3 (Homo sapiens) + Caspase-9 (Homo sapiens) (P42574 whole entry, looked up): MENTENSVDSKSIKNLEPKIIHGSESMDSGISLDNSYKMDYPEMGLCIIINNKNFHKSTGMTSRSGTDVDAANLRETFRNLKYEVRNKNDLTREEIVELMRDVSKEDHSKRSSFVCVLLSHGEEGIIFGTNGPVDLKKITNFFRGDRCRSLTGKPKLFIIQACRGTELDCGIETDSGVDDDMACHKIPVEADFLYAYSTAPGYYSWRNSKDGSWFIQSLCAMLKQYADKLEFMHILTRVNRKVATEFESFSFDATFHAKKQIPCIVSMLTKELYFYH
Chain of Caspase-3 (Homo sapiens) + Caspase-9 (Homo sapiens) (P55211 whole entry, looked up): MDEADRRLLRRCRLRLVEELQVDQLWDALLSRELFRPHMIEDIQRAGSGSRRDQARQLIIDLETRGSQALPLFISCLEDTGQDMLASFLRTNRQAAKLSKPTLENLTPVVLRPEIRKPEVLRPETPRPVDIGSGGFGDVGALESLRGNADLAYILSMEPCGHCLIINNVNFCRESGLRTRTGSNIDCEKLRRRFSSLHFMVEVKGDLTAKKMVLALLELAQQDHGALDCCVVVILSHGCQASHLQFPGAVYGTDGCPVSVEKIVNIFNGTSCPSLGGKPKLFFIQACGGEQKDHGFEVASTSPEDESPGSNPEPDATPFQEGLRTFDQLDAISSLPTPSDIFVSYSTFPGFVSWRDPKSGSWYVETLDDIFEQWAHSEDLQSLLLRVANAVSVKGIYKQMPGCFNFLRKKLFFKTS

EC50 | SMILES
> 100 µM (inactive) | CC(Cc1c[nH]c2ccccc12)C(=O)O (configuration not stated)
> 100 µM (inactive) | Cc1cc(C)n(C(C)C(C)C(=O)O)n1 (configuration not stated)
> 100 µM (inactive) | Cc1cc(NC(=O)C2CC(c3ccc(F)cc3)=NO2)n(-c2ccccc2)n1 (configuration not stated)
> 100 µM (inactive) | O=C(Nc1nc2ccsc2c(=O)s1)C1CCC1
> 100 µM (inactive) | O=C(c1ccco1)N1CCN(C(=O)C2CC(c3ccc(F)cc3)=NO2)CC1 (configuration not stated)
> 100 µM (inactive) | Cc1cc(C)n(CC(C)C(=O)Nc2ccc(Cl)c(Cl)c2)n1 (configuration not stated)
> 100 µM (inactive) | Cc1c(NC(=O)C2CC(c3ccc(F)cc3)=NO2)c(=O)n(-c2ccccc2)n1C (configuration not stated)
> 100 µM (inactive) | O=C(Nc1nc2ccsc2c(=O)s1)c1cccs1
> 100 µM (inactive) | CCOc1ccccc1NC(=O)CCS(=O)(=O)c1ccc2c(c1)OCCO2
> 100 µM (inactive) | Cc1nn(CC(C)C(=O)O)c(C)c1Br (configuration not stated)
> 100 µM (inactive) | O=C1CC2(CC(c3c(F)cccc3Cl)=NO2)C(=O)N1c1ccccc1 (configuration not stated)
> 100 µM (inactive) | Cc1cc(C)n(C(C)CC(=O)Nc2cccnc2)n1 (configuration not stated)
> 100 µM (inactive) | O=C(O)C1CC(c2ccc(F)cc2)=NO1 (configuration not stated)
> 100 µM (inactive) | O=C(Nc1ccc(F)cc1F)C1CC(c2ccc(F)cc2)=NO1 (configuration not stated)
> 100 µM (inactive) | Cc1nn(Cc2ccccc2)c(C)c1CCC(=O)O
> 100 µM (inactive) | O=C(Nc1nc2ccsc2c(=O)s1)c1ccco1
> 100 µM (inactive) | Cc1cc(C)c(O)c(N2CC(C(=O)O)CC2=O)c1 (configuration not stated)
